The record followed here is BindingDB's records for doi:10.7270/Q2K072QS (Burnham Center For Chemical Genomics, 2010).

The test concerns the target G-protein coupled receptor 35 (Homo sapiens, UniProt Q9HC97). Put plainly: blockers of orphan receptor GPR35 – imaging, high-content imaging, selectivity assay for GPR55 agonist project, SAR follow-up (AID 2338).

Sequence of G-protein coupled receptor 35 (Q9HC97 whole entry): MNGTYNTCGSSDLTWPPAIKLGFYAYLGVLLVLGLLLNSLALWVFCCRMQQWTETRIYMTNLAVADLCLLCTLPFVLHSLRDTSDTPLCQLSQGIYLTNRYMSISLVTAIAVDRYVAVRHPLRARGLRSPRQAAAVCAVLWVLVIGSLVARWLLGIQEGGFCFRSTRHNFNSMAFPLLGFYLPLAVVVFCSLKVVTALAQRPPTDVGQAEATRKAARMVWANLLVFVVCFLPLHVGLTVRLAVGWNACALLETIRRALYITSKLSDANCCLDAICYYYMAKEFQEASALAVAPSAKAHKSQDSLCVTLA

By IC50 is commonly meant the concentration that inhibits the measured activity by half. Read a high IC50 as a need for much substance. In the case of `C=CCN(CC=C)S(=O)(=O)c1ccc(NC(=S)NC(=O)c2ccc(-c3ccccc3)cc2)cc1`, the IC50 is > 32 µM.

`COc1ccccc1C=CC(=O)NC(=S)Nc1ccc(S(=O)(=O)N(C)c2ccccc2)cc1`: the half-inhibitory concentration (IC50) is > 32 µM.

For `O=C(CSc1nc2ccccc2s1)N1c2ccccc2Sc2ccc(C(F)(F)F)cc21`, the concentration for half-maximal inhibition (IC50) was > 32 µM.

Turning to `Cc1cccc(N2CCN(C(=O)c3cc(S(=O)(=O)N(C)C)ccc3N3CCCC3)CC2)c1C`, the half-inhibitory concentration (IC50) was > 32 µM.

For the molecule `CCCN(CCC)Cc1c(C(=O)NN=Cc2c[nH]c3ccccc23)nnn1-c1nonc1N`, the IC50 is > 32 µM.

Take `C/C(C=NNC(=O)c1nnn(-c2nonc2N)c1CN1CCC(C)CC1)=C/c1ccccc1`: the IC50 was > 32 µM.

For `CCCN(CCC)Cc1c(C(=O)NN=C/C(C)=C\c2ccccc2)nnn1-c1nonc1N` [1-(4-azanyl-1,2,5-oxadiazol-3-yl)-5-[(dipropylamino)methyl]-N-[[(Z)-2-methyl-3-phenyl-prop-2-enylidene]amino]-1,2,3-triazole-4-carboxamide], the IC50 was > 32 µM.

Take `CCCN(CCC)Cc1c(C(=O)NN=C/C(C)=C\c2ccco2)nnn1-c1nonc1N` [1-(4-azanyl-1,2,5-oxadiazol-3-yl)-5-[(dipropylamino)methyl]-N-[[(Z)-3-(furan-2-yl)-2-methyl-prop-2-enylidene]amino]-1,2,3-triazole-4-carboxamide]: the IC50 (inactive by the depositor's call) came out at 24.4 µM.

Turning to `COc1cc2c(cc1NC(=O)C(C)Sc1ccc(NC(C)=O)cc1)oc1ccccc12` (stereo unspecified) [2-[(4-acetamidophenyl)thio]-N-(2-methoxy-3-dibenzofuranyl)propanamide], the half-maximal inhibitory concentration (IC50) is > 32 µM.

In the case of `Cc1occc1C(=O)Nc1ccc(OCc2ccccc2)cc1` [2-methyl-N-(4-phenylmethoxyphenyl)furan-3-carboxamide], the half-maximal inhibitory concentration (IC50) was > 32 µM.

In the case of `CC(C)=CC(=O)Nc1ccc(OCc2ccccc2)cc1` [3-methyl-N-(4-phenylmethoxyphenyl)but-2-enamide], the IC50 was > 32 µM.

Take `COc1cc2c(cc1NC(=O)CSc1ccccc1)oc1ccccc12` [MLS000579482]: the 50% inhibitory concentration (IC50) is > 32 µM.

As to `COc1ccc2c(c1)cc(C)c1nnc(SCC(=O)N(C)c3nc(-c4ccccc4)cs3)n12` [MLS-0102574.0001], the half-inhibitory concentration (IC50) is > 32 µM.

For `CC(C)Oc1ccc(S(=O)(=O)N2CCOCC2)cc1NC(=O)c1ccc(N2CCCC2=O)cc1` [N-(5-morpholin-4-ylsulfonyl-2-propan-2-yloxy-phenyl)-4-(2-oxidanylidenepyrrolidin-1-yl)benzamide], the half-maximal inhibitory concentration (IC50) was > 32 µM.

For the molecule `COc1ccc(S(=O)(=O)N2CCOCC2)cc1NC(=O)c1cc2c(s1)CCCC2` [N-[2-methoxy-5-(4-morpholinylsulfonyl)phenyl]-4,5,6,7-tetrahydro-1-benzothiophene-2-carboxamide], the concentration for half-maximal inhibition (IC50) was > 32 µM.

For the molecule `COc1ccc2cc(C)c3nnc(SCC(=O)Nc4nc(-c5ccc(F)cc5)cs4)n3c2c1` [N-[4-(4-fluorophenyl)-1,3-thiazol-2-yl]-2-[(8-methoxy-4-methyl-[1,2,4]triazolo[4,3-a]quinolin-1-yl)sulfanyl]ethanamide], the IC50 was > 32 µM.

On to `COc1ccc(-c2csc(NC(=O)CSc3nnc4c(C)cc5ccccc5n34)n2)cc1` [N-[4-(4-methoxyphenyl)-1,3-thiazol-2-yl]-2-[(4-methyl-[1,2,4]triazolo[4,3-a]quinolin-1-yl)sulfanyl]ethanamide], for which the IC50 was > 32 µM.

As for `O=C(CSc1nc2ccccc2s1)N1c2ccccc2Sc2ccc(Cl)cc21` [SMR000198068], the 50% inhibitory concentration (IC50) was > 32 µM.

For `CC(C)NS(=O)(=O)c1ccc(NC(=S)NC(=O)c2ccc(-c3ccccc3)cc2)cc1` [SMR000200853], the 50% inhibitory concentration (IC50) is > 32 µM.

For `CC(Sc1nc2cc(Cl)ccc2s1)C(=O)Nc1cccc(S(=O)(=O)N2CCOCC2)c1` (stereo unspecified) [SMR000243093], the 50% inhibitory concentration (IC50) was > 32 µM.

`CN(C)S(=O)(=O)c1ccc(N2CCCC2)c(C(=O)N2CCN(c3ccc([N+](=O)[O-])cc3)CC2)c1` [SMR000370611]: the IC50 is > 32 µM.
